The record followed here is patent publication US20070232694A1, “SKIN CLEANSER” (priority 2006, published 2007).

The subject of test [1] is mycobacteria marinum. The test can be described thus: Finger infection, patient case. It counts as in vivo, human. To be noted: after eleven days of antibiotics. Here is the method:
Action against Mycobacteria: A person with four month long history of an infection on the posterior aspect of their right ring finger was treated. The infected areas were culture positive for mycobacteria marinum, with symptoms of infection resulting in a 4 cm long patchy zone of erythema, induration, and oozing from the wound. After failing two full courses of oral antibiotics, over the previous four months, the patient was given a third round of antibiotics, this time Clarythromycin, after their finger's condition had worsened.

For test [2], the system named is ATCC 29213 (MSSA) and ATCC 43330 (MRSA). Put plainly: Petri dish (Mueller-Hinton agar) drop test, zones of inhibition vs controls. The settings on record: for order of anti-bacterial effectiveness: at a given concentration. Format: cell-based, Staphylococcus aureus. The protocol:
Testing was conducted at a pathology laboratory certified for microbiology testing by a physician and a microbiologist. A double blind, randomized controlled experiment was conducted to evaluate the surfactant compounds against bacteria in Petri dishes.
Bacterial strain: Two well characterized strains of methicillin-sensitive Staphylococcus aureus (MSSA) and methicillin-resistant Staphylococcus aureus (MRSA) were used. Specifically, experiments used ATCC 29213 (MSSA) and ATCC 43330 (MRSA), both beta-lactamase positive strains, which represent greater than 90% of the respective strains in the American population.
Petri dish preparation: A sterile cotton swab (American Scientific Products, McGraw Park, Ill.) was dipped into the cultures and used to swab the entire surface of 150×15 mm Petri dishes containing 75 ml of standard Mueller-Hinton agar. Two Petri dishes were inoculated with ATCC 29213 (MSSA and two Petri dishes with ATCC 43330 (MRSA). One Petri dish of each group (MSSA and MRSA) was set aside as the controls. The other two Petri dishes (MSSA and MRSA) were divided up in quadrants, and each quadrant was labeled B, C, D or E.
Cleanser compositions were prepared as follows: A surfactant solution containing about 10% by volume of sodium dodecylbenzenesulfonate was prepared. An aqueous stock solution containing 0.5% by volume sodium hypochlorite and 0.5% by volume abrasive (calcium carbonate and sodium carbonate) was prepared. The surfactant solution and stock solution were mixed in various ratios to produce four skin cleanser solutions having four different surfactant concentrations of 0.5%, 1%, 2% and 8%, by volume. The amount of sodium hypochlorite, calcium carbonate and sodium carbonate in each of the four skin cleanser solutions was less than 1% concentration by volume.
Cleanser Testing: Four samples of the cleanser with the four different concentrations of the surfactant (0.5%, 1%, 2% and 8%) were placed into four separate, unmarked bottles. Each bottle was randomly labeled (B, C, D, or E), and the microbiologist conducting the study was unaware of any difference between the solutions.
Application: Holding each bottle vertically, the microbiologist added a single drop from each bottle (B, C, D, or E) to the corresponding quadrant of the labeled Petri dish. All four Petri dishes were placed in an incubator overnight at 37 degrees Celsius, and examined 20 hours later. Petri dishes were compared to the corresponding controls, and zones of inhibition were characterized by the largest point of diameter of the circle or oval.
Four cleanser compositions were prepared and tested in the manner described in Example 1, except that each cleanser contained a different anionic surfactant. […]

For test [3], the system named is Enterococcus. Put plainly: Infected decubitus ulcer, patient case. It counts as in vivo, human. To be noted: on antibiotics, five days after admission.
Description: Action against Gram-positives such as Enterococcus: A person with long history of diabetes was admitted from their hospice care home to an acute care facility hospital secondary to an infected decubitus ulcer (bedsore). This patient's sacral ulcer tested positive from culture swab for Enterococcus, a common Gram-positive bacterium for infecting bedsores. Immediately upon admission, the patient was placed on antibiotics (ciprofloxacin). […] On day five, the treating physician directly cultured the wound again with two cotton swabs. Cotton swab #1, the control, was placed directly in the sealed container based on hospital protocol. Cotton swab #2 was placed into the sealed container, but one single vertical drop of a cleanser solution (prepared as described in Example 1). Both swabs were sent to the lab and a count of colony-forming units (CFUs) ordered.

In the case of `CC[C@H]1OC(=O)[C@H](C)[C@@H](O[C@H]2C[C@@](C)(OC)[C@@H](O)[C@H](C)O2)[C@H](C)[C@@H](O[C@@H]2O[C@H](C)C[C@H](N(C)C)[C@H]2O)[C@](C)(OC)C[C@@H](C)C(=O)[C@H](C)[C@@H](O)[C@]1(C)O` [Clarythromycin], the symptoms of infection result in test [1] is recorded as “no change in symptoms”.
On to `CCCCCCCCCCCC(=O)N(C)CC(=O)[O-].[Na+]` [N-lauroylsarcosine sodium salt], for which the “order of anti-bacterial effectiveness” value in test [2] is reported as “sodium dodecylbenzenesulfonate >N-lauroylsarcosine sodium salt >sodium cholate, sodium deoxycholate”.
`OCl` [Sodium hypochlorite]: the “effect on anti-bacterial action of sodium dodecylbenzenesulfonate” value in test [2] (synergy of action) was “potentiated”.
`O=C(O)c1cn(C2CC2)c2cc(N3CCNCC3)c(F)cc2c1=O` [ciprofloxacin]: the course of ulcer result in test [3] is “signs of worsening”.
Take `C[C@H](CCC(=O)[O-])[C@H]1CC[C@H]2[C@@H]3[C@H](O)C[C@@H]4C[C@H](O)CC[C@]4(C)[C@H]3C[C@H](O)[C@]12C.[Na+]` [sodium cholate]: in test [2], the “order of anti-bacterial effectiveness” value is “sodium dodecylbenzenesulfonate >N-lauroylsarcosine sodium salt >sodium cholate, sodium deoxycholate”.
As to sodium deoxycholate, in test [2], the “order of anti-bacterial effectiveness” value is listed as “sodium dodecylbenzenesulfonate >N-lauroylsarcosine sodium salt >sodium cholate, sodium deoxycholate”.
